Results on 16 compounds are retold here after US7981903B2, “2-[2-{phenylamino}-1H-pyrrolo[2,3-D]pyrimidin-4-yl)amino] benzamide derivatives as IGF-1R inhibitors for the treatment of cancer” (GlaxoSmithKline LLC, priority 2007, dated 2011).

One assay has as its target T1, human IGF1R (hIGF1R) (Homo sapiens, UniProt P08069).
T1 construct: containing amino acid residues 957-1367 of human IGF1R; made in house; host or cells: Sf9 cells (baculovirus)
In words: TR-FRET kinase assay of purified hIGF1R. It is filed as biochemical. Conditions: activated hIGF1R 0.5 nM, 10 μM ATP, values given as pIC50 category, read-out: IGF-1R pIC50 (converted).

Assay [1] has as its target T2, NIH-3T3 cells overexpressing human IR (Homo sapiens, UniProt P06213).
T2 construct: expressed in transfected cells; host or cells: NIH-3T3 (mouse fibroblasts)
The experiment in a line: IR cellular autophosphorylation (DELFIA). Conditions: 2 h compound, insulin 3 ug/ml for 15 minutes, IC50 category. In kind it is cell-based. How it is done:
NIH-3T3 cells overexpressing human IGF-1R or IR were plated in 96-well plates (10,000 cells/well) in culture media containing 10% fetal bovine serum and incubated at 37° C. in a 5% CO2 incubator. Twenty four hours post-plating, cells were treated with different concentrations of test compounds ranging from 30 uM to 1.5 nM. Two hours after compound addition, cells were stimulated with either human IGF-1 (30 ng/ml) or insulin (3 ug/ml) for 15 minutes. Cell lysates are analyzed for phosphorylated receptors using dissociation enhanced lanthanide fluor-immuno assay (DELFIA) with anti-IGF-1R (MAB391, R&D Systems, Minneapolis, Minn.) or anti-IRβ (sc-711, Santa Cruz Biotechnology, Santa Cruz, Calif.) capture antibody and europium-labeled anti-pTyr antibody (Eu-N1 PT66, Perkin Elmer, Waltham, Mass.) for detection. The fluorescence signal for cells treated with compounds was expressed as percent relative to 100% stimulation (IGF-1 or insulin stimulated signal).

Assay [2] has as its target T3, NIH-3T3 cells overexpressing human IGF-1R (Homo sapiens, UniProt P08069).
T3 construct: expressed in transfected cells; host or cells: NIH-3T3 (mouse fibroblasts)
In words: IGF-1R cellular autophosphorylation (DELFIA). It is filed as cell-based. The gist of the method: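 Receptor autophosphorylation measured by DELFIA, capturing IGF-1R or IRβ and detecting with europium anti-pTyr, reported as percent of IGF-1- or insulin-stimulated signal. Compounds (30 uM to 1.5 nM) added 2 h before ligand, then 15 min stimulation (IGF-1 30 ng/ml or insulin 3 ug/ml).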

A further assay deals with T4, human IR (hIR) (Homo sapiens, UniProt P06213).
T4 construct: containing amino acid residues 979-1382 of human IR; made in house; host or cells: Sf9 cells (baculovirus), same process as hIGF1R
T4 sequence (P06213 979-1382): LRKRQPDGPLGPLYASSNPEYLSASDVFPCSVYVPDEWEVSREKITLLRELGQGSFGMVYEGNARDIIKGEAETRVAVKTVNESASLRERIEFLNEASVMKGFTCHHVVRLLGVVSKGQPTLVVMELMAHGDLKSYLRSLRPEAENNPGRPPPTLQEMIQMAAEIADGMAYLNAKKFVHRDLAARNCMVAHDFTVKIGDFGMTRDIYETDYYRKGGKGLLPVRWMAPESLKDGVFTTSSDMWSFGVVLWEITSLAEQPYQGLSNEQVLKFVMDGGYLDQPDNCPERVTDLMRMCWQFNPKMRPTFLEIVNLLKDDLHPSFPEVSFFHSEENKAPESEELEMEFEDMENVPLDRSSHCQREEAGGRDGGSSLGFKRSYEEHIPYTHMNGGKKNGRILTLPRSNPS
The experiment in a line: TR-FRET kinase assay of purified hIR. It is filed as biochemical. Conditions: activated hIR 0.5 nM, 10 μM ATP, values given as pIC50 category.

For a further assay, the target named is ALK (Homo sapiens, UniProt Q9UM73). The experiment in a line: ALK enzyme assay (HTRF). In kind it is biochemical. The settings on record: 0.25 nM ALK, 15.0 μM ATP, values given as pIC50 category. The gist of the method:
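Final compound range 0.00017 to 10 μM (twelve 1:3 dilutions). Kinase reaction with ATP and biotinylated synthetic peptide runs 120 min at 20° C, stopped with EDTA; phosphotyrosine detected by HTRF after 60 min. Inhibition referenced to DMSO (1%) and EDTA (0.1 M) controls, curve-fitted.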

Molecules are shown by their SMILES. Bounds are passed on as bounds.

T3 sequence (P08069 31-1367): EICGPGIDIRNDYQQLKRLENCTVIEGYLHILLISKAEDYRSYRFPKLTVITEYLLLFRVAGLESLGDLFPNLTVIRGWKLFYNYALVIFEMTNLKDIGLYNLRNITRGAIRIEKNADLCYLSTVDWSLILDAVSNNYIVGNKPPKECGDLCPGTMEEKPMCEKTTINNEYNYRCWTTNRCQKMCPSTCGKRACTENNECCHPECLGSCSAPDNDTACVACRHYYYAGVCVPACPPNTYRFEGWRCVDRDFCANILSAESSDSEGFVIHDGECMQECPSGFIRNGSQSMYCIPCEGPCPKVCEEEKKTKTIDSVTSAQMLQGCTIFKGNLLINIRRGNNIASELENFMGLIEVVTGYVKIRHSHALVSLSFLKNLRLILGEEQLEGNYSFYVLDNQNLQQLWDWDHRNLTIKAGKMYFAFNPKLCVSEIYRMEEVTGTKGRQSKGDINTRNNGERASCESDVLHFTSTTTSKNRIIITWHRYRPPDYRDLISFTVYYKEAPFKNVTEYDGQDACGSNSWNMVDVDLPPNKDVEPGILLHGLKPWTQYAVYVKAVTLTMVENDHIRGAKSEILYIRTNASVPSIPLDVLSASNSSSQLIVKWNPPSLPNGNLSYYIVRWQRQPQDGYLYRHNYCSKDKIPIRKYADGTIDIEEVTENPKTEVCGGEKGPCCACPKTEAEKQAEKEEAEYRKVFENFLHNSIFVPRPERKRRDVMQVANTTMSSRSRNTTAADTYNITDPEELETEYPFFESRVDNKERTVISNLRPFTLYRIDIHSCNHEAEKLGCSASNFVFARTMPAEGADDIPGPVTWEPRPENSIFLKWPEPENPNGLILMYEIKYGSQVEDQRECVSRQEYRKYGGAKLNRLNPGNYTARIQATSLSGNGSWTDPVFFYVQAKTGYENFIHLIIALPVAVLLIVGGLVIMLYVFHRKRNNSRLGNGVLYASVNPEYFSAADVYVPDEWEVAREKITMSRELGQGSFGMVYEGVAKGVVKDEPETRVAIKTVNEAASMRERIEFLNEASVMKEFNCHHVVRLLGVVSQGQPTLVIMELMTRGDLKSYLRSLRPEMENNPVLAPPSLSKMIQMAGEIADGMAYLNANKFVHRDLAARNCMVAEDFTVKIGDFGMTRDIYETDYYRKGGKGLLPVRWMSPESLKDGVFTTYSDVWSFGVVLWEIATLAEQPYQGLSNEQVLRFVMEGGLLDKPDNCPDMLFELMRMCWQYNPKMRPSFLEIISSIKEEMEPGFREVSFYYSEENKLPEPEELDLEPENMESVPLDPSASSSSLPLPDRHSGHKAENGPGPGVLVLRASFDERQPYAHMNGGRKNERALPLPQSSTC
T1 sequence (P08069 957-1367): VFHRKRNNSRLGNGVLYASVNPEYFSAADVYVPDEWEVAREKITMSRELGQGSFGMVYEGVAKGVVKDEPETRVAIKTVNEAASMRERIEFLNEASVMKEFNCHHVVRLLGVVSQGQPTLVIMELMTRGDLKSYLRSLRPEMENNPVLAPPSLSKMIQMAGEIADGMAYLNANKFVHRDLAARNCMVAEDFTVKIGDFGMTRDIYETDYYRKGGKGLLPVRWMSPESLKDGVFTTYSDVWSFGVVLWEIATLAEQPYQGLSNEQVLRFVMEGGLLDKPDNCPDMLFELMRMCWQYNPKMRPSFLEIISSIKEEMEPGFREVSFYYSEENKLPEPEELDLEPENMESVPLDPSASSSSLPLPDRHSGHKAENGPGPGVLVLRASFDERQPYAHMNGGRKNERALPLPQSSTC
Chain of ALK (Q9UM73 19-1620): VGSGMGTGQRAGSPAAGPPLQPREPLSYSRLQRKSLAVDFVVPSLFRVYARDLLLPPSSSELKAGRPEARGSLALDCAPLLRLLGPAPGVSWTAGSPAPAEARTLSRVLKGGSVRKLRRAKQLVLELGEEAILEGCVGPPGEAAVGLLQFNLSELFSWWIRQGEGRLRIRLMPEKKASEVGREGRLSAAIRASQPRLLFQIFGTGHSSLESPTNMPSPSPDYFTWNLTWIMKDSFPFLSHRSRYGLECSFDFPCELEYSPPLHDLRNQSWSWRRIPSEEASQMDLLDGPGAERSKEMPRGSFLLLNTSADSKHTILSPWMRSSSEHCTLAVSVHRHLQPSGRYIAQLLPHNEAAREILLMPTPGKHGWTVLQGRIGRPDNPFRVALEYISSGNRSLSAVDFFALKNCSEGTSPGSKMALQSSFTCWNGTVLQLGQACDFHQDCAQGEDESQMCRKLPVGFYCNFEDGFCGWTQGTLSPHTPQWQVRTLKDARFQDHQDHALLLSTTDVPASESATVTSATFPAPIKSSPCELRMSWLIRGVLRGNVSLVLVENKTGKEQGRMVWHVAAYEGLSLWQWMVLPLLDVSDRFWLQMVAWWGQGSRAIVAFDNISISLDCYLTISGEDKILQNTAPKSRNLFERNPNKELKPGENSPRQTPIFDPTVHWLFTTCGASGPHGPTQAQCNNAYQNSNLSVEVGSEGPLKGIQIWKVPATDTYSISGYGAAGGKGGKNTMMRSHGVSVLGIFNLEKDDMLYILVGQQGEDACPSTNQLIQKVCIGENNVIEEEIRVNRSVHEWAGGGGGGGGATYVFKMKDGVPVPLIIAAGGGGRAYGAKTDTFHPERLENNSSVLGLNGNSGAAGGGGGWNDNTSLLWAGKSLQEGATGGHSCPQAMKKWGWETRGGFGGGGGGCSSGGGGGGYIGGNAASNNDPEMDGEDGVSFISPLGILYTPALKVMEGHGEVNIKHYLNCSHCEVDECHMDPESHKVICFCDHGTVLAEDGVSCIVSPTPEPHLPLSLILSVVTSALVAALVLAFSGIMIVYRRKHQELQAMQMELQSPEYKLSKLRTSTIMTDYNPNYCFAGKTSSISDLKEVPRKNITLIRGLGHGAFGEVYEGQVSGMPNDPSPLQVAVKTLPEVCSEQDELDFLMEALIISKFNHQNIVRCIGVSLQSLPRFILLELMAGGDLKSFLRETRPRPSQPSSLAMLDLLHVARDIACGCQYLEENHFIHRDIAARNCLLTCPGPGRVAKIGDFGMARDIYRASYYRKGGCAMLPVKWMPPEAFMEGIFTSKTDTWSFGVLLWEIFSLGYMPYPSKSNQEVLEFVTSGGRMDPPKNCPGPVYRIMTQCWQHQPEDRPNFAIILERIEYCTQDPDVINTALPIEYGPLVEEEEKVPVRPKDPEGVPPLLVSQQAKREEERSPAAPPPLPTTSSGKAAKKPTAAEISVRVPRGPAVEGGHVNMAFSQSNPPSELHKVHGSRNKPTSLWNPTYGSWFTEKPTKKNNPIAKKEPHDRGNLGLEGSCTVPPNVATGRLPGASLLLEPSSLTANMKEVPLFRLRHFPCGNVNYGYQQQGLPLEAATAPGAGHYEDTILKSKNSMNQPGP
T2 sequence (P06213 28-1382): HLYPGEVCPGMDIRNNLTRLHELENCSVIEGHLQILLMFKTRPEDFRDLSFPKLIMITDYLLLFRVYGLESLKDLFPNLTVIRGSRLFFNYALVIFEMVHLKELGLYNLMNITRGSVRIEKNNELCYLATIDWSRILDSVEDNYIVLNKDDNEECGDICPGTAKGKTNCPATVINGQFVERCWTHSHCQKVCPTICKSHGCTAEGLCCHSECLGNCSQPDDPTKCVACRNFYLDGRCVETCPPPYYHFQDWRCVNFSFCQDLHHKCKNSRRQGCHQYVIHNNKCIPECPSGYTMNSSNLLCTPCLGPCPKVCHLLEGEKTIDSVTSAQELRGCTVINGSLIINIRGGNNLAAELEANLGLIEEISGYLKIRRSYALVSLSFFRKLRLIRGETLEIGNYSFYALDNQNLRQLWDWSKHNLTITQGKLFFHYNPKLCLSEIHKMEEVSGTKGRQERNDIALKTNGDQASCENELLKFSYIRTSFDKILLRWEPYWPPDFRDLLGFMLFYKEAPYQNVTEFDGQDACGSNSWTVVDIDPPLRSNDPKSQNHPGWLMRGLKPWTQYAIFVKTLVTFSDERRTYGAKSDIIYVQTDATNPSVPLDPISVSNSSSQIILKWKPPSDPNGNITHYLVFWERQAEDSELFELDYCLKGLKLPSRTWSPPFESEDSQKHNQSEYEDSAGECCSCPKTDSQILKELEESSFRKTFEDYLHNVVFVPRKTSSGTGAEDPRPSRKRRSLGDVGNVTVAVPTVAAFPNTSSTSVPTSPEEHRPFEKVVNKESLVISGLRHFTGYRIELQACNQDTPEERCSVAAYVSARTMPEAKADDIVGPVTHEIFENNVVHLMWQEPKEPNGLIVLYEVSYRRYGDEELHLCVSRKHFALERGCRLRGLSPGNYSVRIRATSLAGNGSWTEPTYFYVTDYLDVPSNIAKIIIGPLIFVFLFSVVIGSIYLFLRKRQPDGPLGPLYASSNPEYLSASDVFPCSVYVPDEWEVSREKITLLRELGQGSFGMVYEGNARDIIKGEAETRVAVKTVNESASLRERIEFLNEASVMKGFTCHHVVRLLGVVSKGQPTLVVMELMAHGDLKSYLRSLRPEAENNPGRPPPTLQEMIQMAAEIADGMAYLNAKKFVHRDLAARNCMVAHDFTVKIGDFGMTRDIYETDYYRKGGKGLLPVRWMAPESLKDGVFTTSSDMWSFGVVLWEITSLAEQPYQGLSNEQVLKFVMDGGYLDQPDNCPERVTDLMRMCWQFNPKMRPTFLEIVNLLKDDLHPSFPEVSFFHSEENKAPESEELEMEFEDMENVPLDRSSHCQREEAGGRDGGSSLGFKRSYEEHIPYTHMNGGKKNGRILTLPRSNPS

With `COc1cc(C)c(N(C)C(=O)CN(C)C)cc1Nc1nc(Nc2cccc(F)c2C(N)=O)c2cc[nH]c2n1` [Example 255, 2-[(2-{[5-[(N,N-dimethylglycyl)(methyl)amino]-4-methyl-2-(methyloxy)phenyl]amino}-1H-pyrrolo[2,3-d]pyrimidin-4-yl)amino]-6-fluorobenzamide], the IC50 at human IGF1R (hIGF1R) is 5.01 to 200 nM; in assay [1], over 500 nM; in assay [2], over 500 nM; against human IR (hIR) it was 5.01 to 158 nM; against ALK, 5.01 to 200 nM.

Regarding `Cc1ccc(NC(=O)CN(C)C)cc1Nc1nc(Nc2cc3ccccc3cc2C(N)=O)c2cc[nH]c2n1` [Example 30, 3-{[2-({5-[(N,N-dimethylglycyl)amino]-2-methylphenyl}amino)-1H-pyrrolo[2,3-d]pyrimidin-4-yl]amino}-2-naphthalenecarboxamide], the IC50 on human IGF1R (hIGF1R) was 1.26 to 3.98 nM; in assay [1], over 500 nM; against human IR (hIR), 0.251 to 1 nM; against ALK, 5.01 to 200 nM.

On to `Cc1ccc(NC(=O)CN2CCCC2)cc1Nc1nc(Nc2ccccc2C(N)=O)c2cc[nH]c2n1` [Example 14, 2-{[2-({2-methyl-5-[(1-pyrrolidinylacetyl)amino]phenyl}amino)-1H-pyrrolo[2,3-d]pyrimidin-4-yl]amino}benzamide], for which the IC50 at human IGF1R (hIGF1R) was 1.26 to 3.98 nM; in assay [1], 100 to 500 nM; in assay [2], 100 to 500 nM; against human IR (hIR), 0.251 to 1 nM; against ALK, 1.26 to 3.98 nM.

For the compound `COc1cc(C)c(NC(=O)CN(C)C)cc1Nc1nc(Nc2cccc(F)c2C(N)=O)c2cc[nH]c2n1` [Example 257, 2-[(2-{[5-[(N,N-dimethylglycyl)amino]-4-methyl-2-(methyloxy)phenyl]amino}-1H-pyrrolo[2,3-d]pyrimidin-4-yl)amino]-6-fluorobenzamide], the IC50 on human IGF1R (hIGF1R) is 0.251 to 1 nM; in assay [1], under 100 nM; in assay [2], under 100 nM; on human IR (hIR) it was 0.251 to 1 nM; against ALK, 0.251 to 1 nM.

Regarding `COc1cc(N2CCN(CC(C)C)CC2)ccc1Nc1nc(Nc2cc(F)ccc2C(N)=O)c2cc[nH]c2n1` [Example 80, 4-fluoro-2-{[2-({2-(methyloxy)-4-[4-(2-methylpropyl)-1-piperazinyl]phenyl}amino)-1H-pyrrolo[2,3-d]pyrimidin-4-yl]amino}benzamide], the IC50 was 1.26 to 3.98 nM on human IGF1R (hIGF1R); 100 to 500 nM in assay [1]; under 100 nM in assay [2]; 0.251 to 1 nM against human IR (hIR); 0.251 to 1 nM against ALK.

Turning to `COc1cc2c(cc1Nc1nc(Nc3cccc(F)c3C(N)=O)c3cc[nH]c3n1)N(C(=O)CN(C)C)[C@H](C)C2` [Example 248, 2-[(2-{[(2R)-1-(N,N-dimethylglycyl)-2-methyl-5-(methyloxy)-2,3-dihydro-1H-indol-6-yl]amino}-1H-pyrrolo[2,3-d]pyrimidin-4-yl)amino]-6-fluorobenzamide], the IC50 on human IGF1R (hIGF1R) is 5.01 to 200 nM; in assay [1], 100 to 500 nM; in assay [2], 100 to 500 nM; against human IR (hIR) it was 5.01 to 158 nM; at ALK it was 5.01 to 200 nM.

With `CCCN1CCC=C(c2ccc(Nc3nc(Nc4cc(Cl)ccc4C(N)=O)c4cc[nH]c4n3)c(OC)c2)C1` [Example 110, 4-chloro-2-[(2-{[2-(methyloxy)-4-(1-propyl-1,2,5,6-tetrahydro-3-pyridinyl)phenyl]amino}-1H-pyrrolo[2,3-d]pyrimidin-4-yl)amino]benzamide], the IC50 on human IGF1R (hIGF1R) was 1.26 to 3.98 nM; in assay [1] it was over 500 nM; in assay [2], 100 to 500 nM; against human IR (hIR), 1.26 to 3.98 nM; at ALK, 0.251 to 1 nM.

`COc1cc2c(cc1Nc1nc(Nc3cccc(F)c3C(N)=O)c3c(C)c[nH]c3n1)N(C(=O)CN(C)C)CCC2` [Example 261, 2-[(2-{[1-(N,N-dimethylglycyl)-6-(methyloxy)-1,2,3,4-tetrahydro-7-quinolinyl]amino}-5-methyl-1H-pyrrolo[2,3-d]pyrimidin-4-yl)amino]-6-fluorobenzamide]: the IC50 is 0.251 to 1 nM at human IGF1R (hIGF1R), under 100 nM in assay [1], under 100 nM in assay [2] and 0.251 to 1 nM against human IR (hIR).

For the compound `COc1cc(N2CCOCC2)ccc1Nc1nc(Nc2ccccc2C(N)=O)c2cc[nH]c2n1` [Example 12, 2-[(2-{[2-(methyloxy)-4-(4-morpholinyl)phenyl]amino}-1H-pyrrolo[2,3-d]pyrimidin-4-yl)amino]benzamide], the IC50 on human IGF1R (hIGF1R) was 1.26 to 3.98 nM; in assay [1] it was 100 to 500 nM; in assay [2] it was 100 to 500 nM; against human IR (hIR), 0.251 to 1 nM; against ALK, 0.251 to 1 nM.

Take `CCCN1CCC=C(c2ccc(Nc3nc(Nc4cc5ccccc5cc4C(N)=O)c4cc[nH]c4n3)c(OC)c2)C1` [Example 29, 3-[(2-{[2-(methyloxy)-4-(1-propyl-1,2,5,6-tetrahydro-3-pyridinyl)phenyl]amino}-1H-pyrrolo[2,3-d]pyrimidin-4-yl)amino]-2-naphthalenecarboxamide]: the IC50 is 1.26 to 3.98 nM on human IGF1R (hIGF1R); 100 to 500 nM in assay [1]; 100 to 500 nM in assay [2]; 1.26 to 3.98 nM on human IR (hIR); 1.26 to 3.98 nM at ALK.

Consider `CCCN1CCC=C(c2ccc(Nc3nc(Nc4cccc(F)c4C(N)=O)c4cc[nH]c4n3)c(OC)c2)C1` [Example 41, 2-fluoro-6-[(2-{[2-(methyloxy)-4-(1-propyl-1,2,5,6-tetrahydro-3-pyridinyl)phenyl]amino}-1H-pyrrolo[2,3-d]pyrimidin-4-yl)amino]benzamide], for which the IC50 is 1.26 to 3.98 nM at human IGF1R (hIGF1R); 100 to 500 nM in assay [1]; 100 to 500 nM in assay [2]; 1.26 to 3.98 nM at human IR (hIR); 0.251 to 1 nM against ALK.

For `COc1cc(N2CCN(C(C)C)CC2)ccc1Nc1nc(Nc2cc(F)ccc2C(N)=O)c2cc[nH]c2n1` [Example 79, 4-fluoro-2-[(2-{[4-[4-(1-methylethyl)-1-piperazinyl]-2-(methyloxy)phenyl]amino}-1H-pyrrolo[2,3-d]pyrimidin-4-yl)amino]benzamide], the IC50 was 0.251 to 1 nM on human IGF1R (hIGF1R), under 100 nM in assay [1], 100 to 500 nM in assay [2] and 0.251 to 1 nM at human IR (hIR).

For `CNC(=O)c1c(F)cccc1Nc1nc(Nc2cc(N(C)C(=O)CN(C)C)c(C)cc2OC)nc2[nH]ccc12` [Example 254, 2-[(2-{[5-[(N,N-dimethylglycyl)(methyl)amino]-4-methyl-2-(methyloxy)phenyl]amino}-1H-pyrrolo[2,3-d]pyrimidin-4-yl)amino]-6-fluoro-N-methylbenzamide], the IC50 in assay [1] is over 500 nM; in assay [2], over 500 nM; at human IR (hIR), 5.01 to 158 nM; against ALK it was 5.01 to 200 nM.

As for `CCCN1CCCC(c2ccc(Nc3nc(Nc4ccccc4C(=O)NC)c4cc[nH]c4n3)c(OC)c2)C1` (stereo not shown) [Example 24, N-methyl-2-[(2-{[2-(methyloxy)-4-(1-propyl-3-piperidinyl)phenyl]amino}-1H-pyrrolo[2,3-d]pyrimidin-4-yl)amino]benzamide], the IC50 on human IGF1R (hIGF1R) is 1.26 to 3.98 nM; in assay [1], 100 to 500 nM; in assay [2] it was 100 to 500 nM; against ALK, 0.251 to 1 nM.

`CNC(=O)c1c(F)cccc1Nc1nc(Nc2cc3c(cc2OC)CCCN3C(=O)CN(C)C)nc2[nH]cc(C)c12` [Example 260, 2-[(2-{[1-(N,N-dimethylglycyl)-6-(methyloxy)-1,2,3,4-tetrahydro-7-quinolinyl]amino}-5-methyl-1H-pyrrolo[2,3-d]pyrimidin-4-yl)amino]-6-fluoro-N-methylbenzamide]: the IC50 at human IGF1R (hIGF1R) is 0.251 to 1 nM; in assay [1] it was under 100 nM; in assay [2], under 100 nM; on human IR (hIR), 0.251 to 1 nM.

As to `COc1cc(C2=CCCN(C)C2)ccc1Nc1nc(Nc2ccc(F)cc2C(N)=O)c2cc[nH]c2n1` [Example 55, 5-fluoro-2-[(2-{[2-(methyloxy)-4-(1-methyl-1,2,5,6-tetrahydro-3-pyridinyl)phenyl]amino}-1H-pyrrolo[2,3-d]pyrimidin-4-yl)amino]benzamide], the IC50 in assay [1] is 100 to 500 nM; in assay [2], 100 to 500 nM; against human IR (hIR), 0.251 to 1 nM; against ALK it was 0.251 to 1 nM.
